Values of other authors, collected in US20200338153A1, “ANAEROBIC ANTIOXIDANT COMPOSITION” (priority 2019, published 2020).

Conditions: in vivo

For `CC(=O)N[C@@H](CS)C(=O)O` [NAC, N-acetylcysteine], which “fraction renally excreted by the body” value is on record?
Its value is 30%.
